# Reference: patent US12590091B2, “1H-pyrrolo[3,2-C]pyridine and 1H-pyrrolo[2,3-C]pyridine derivatives as TLR9 inhibitors for the treatment of fibrosis” (BRISTOL-MYERS SQUIBB COMPANY, priority 2020, dated 2026)
# Target: T1, human TLR7 (Homo sapiens, UniProt Q9NYK1)
# T1 construct: host or cells: HEK-Blue cells
# T1 sequence (Q9NYK1 27-1049): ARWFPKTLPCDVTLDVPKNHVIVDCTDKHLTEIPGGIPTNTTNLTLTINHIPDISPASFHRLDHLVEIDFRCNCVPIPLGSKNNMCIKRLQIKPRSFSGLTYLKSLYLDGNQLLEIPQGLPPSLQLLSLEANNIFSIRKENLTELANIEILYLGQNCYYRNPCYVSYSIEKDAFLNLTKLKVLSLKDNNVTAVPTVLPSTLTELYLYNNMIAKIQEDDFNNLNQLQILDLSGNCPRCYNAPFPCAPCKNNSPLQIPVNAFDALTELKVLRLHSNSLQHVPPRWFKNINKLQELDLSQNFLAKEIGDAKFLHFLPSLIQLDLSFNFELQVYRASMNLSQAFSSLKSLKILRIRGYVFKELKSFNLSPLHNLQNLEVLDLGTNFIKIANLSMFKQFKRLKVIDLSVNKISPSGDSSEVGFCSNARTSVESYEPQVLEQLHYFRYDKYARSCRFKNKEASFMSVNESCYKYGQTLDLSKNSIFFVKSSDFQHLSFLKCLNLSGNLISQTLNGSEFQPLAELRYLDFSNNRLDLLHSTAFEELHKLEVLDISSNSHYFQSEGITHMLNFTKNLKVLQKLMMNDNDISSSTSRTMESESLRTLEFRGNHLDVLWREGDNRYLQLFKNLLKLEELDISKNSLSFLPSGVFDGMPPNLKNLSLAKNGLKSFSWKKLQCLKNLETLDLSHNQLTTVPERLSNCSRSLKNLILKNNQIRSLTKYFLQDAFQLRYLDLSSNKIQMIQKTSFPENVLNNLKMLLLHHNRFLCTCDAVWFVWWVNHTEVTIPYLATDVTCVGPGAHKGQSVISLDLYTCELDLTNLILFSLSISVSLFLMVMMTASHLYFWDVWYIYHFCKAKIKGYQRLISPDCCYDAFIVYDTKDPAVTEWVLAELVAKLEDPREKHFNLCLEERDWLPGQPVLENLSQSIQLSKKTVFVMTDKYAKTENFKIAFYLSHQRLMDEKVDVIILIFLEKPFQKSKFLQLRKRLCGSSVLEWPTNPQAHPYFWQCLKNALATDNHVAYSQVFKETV
# Test: TLR7 inhibition reporter assay (HEK-Blue cells, SEAP reporter)
# Assay type: cell-based
# Settings: HEK-Blue cells overexpressing human TLR7, stimulated with gardiquimod 7.5 μM, 22 hour incubation
# Summary of the method: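 Dose–response from 0.05 nM to 50 μM was run in HEK-Blue human TLR7, TLR8 and TLR9 reporter cells. After 30 min at room temperature with compound, ligand was added (TLR7 gardiquimod 7.5 μM; TLR8 R848 15.9 μM; TLR9 ODN2006 5 nM) and SEAP measured next day, at 22 h.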
row,Compound,IC50 [nM]
1,"Cc1nc(-c2ccc(N3CCN(CCO)CC3)c(F)c2)cc2c1cc(-c1ccc(S(C)(=O)=O)cc1)n2C [Example 69, 2-(4-(4-(1,4-dimethyl-2-(4-(methylsulfonyl)phenyl)-1H-pyrrolo[3,2-c]pyridin-6-yl)-2-fluorophenyl)piperazin-1-yl)ethan-1-ol]",23700
2,"Cc1nc(-c2ccc(N3CCN(C4CCOC4)CC3)c(F)c2)cc2c1cc(-c1ccc(S(C)(=O)=O)cc1)n2C (centres unmarked) [Example 70, 6-(3-fluoro-4-(4-(tetrahydrofuran-3-yl)piperazin-1-yl)phenyl)-1,4-dimethyl-2-(4-(methylsulfonyl)phenyl)-1H-pyrrolo[3,2-c]pyridine]",> 25000
3,"COCCN1C2CCC1CN(c1ccc(-c3cc4c(cc(-c5ccc(S(C)(=O)=O)cc5)n4C)c(C)n3)cc1)C2 [Example 74, 6-(4-(8-(2-methoxyethyl)-3,8-diazabicyclo[3.2.1]octan-3-yl)phenyl)-1,4-dimethyl-2-(4-(methylsulfonyl)phenyl)-1H-pyrrolo[3,2-c]pyridine]",1600
4,"COCCN1C2CCC1CN(c1ccc(-c3cc4c(cc(-c5ccc(S(C)(=O)=O)cc5)n4C)c(C)n3)cc1F)C2 [Example 75, 6-(3-fluoro-4-(8-(2-methoxyethyl)-3,8-diazabicyclo[3.2.1]octan-3-yl)phenyl)-1,4-dimethyl-2-(4-(methylsulfonyl)phenyl)-1H-pyrrolo[3,2-c]pyridine]",2200
5,"Cc1nc(-c2ccc(N3CC4CCC(C3)N4CCCO)cc2)cc2c1cc(-c1ccc(S(C)(=O)=O)cc1)n2C [Example 76, 3-(3-(4-(1,4-dimethyl-2-(4-(methylsulfonyl)phenyl)-1H-pyrrolo[3,2-c]pyridin-6-yl)phenyl)-3,8-diazabicyclo[3.2.1]octan-8-yl)propan-1-ol]",600
6,"Cc1nc(-c2ccc(N3CC4CCC(C3)N4CCCO)c(F)c2)cc2c1cc(-c1ccc(S(C)(=O)=O)cc1)n2C [Example 77, 3-(3-(4-(1,4-dimethyl-2-(4-(methylsulfonyl)phenyl)-1H-pyrrolo[3,2-c]pyridin-6-yl)-2-fluorophenyl)-3,8-diazabicyclo[3.2.1]octan-8-yl)propan-1-ol]",1900
7,"COCCN1C2CCC1CN(c1cc(F)c(-c3cc4c(cc(-c5ccc(S(C)(=O)=O)cc5)n4C)c(C)n3)cc1F)C2 [Example 78, 6-(2,5-difluoro-4-(8-(2-methoxyethyl)-3,8-diazabicyclo[3.2.1]octan-3-yl)phenyl)-1,4-dimethyl-2-(4-(methylsulfonyl)phenyl)-1H-pyrrolo[3,2-c]pyridine]",2700
8,"Cc1nc(-c2cc(F)c(N3CC4CCC(C3)N4CCCO)cc2F)cc2c1cc(-c1ccc(S(C)(=O)=O)cc1)n2C [Example 79, 3-(3-(4-(1,4-dimethyl-2-(4-(methylsulfonyl)phenyl)-1H-pyrrolo[3,2-c]pyridin-6-yl)-2,5-difluorophenyl)-3,8-diazabicyclo[3.2.1]octan-8-yl) propan-1-ol]",2700
9,"Cc1nc(-c2ccc(N3CCN(CC(C)C)CC3)c(F)c2F)cc2c1cc(-c1ccc(S(C)(=O)=O)cc1)n2C [Example 82, 6-(2,3-difluoro-4-(4-isobutylpiperazin-1-yl)phenyl)-1,4-dimethyl-2-(4-(methylsulfonyl)phenyl)-1H-pyrrolo[3,2-c]pyridine]",6400
10,"Cc1nc(-c2ccc(C3(O)CCN(C4CC4)CC3)cc2)cc2c1cc(-c1ccc(S(C)(=O)=O)cc1)n2C [Example 87, 1-cyclopropyl-4-(4-(1,4-dimethyl-2-(4-(methylsulfonyl)phenyl)-1H-pyrrolo[3,2-c]pyridin-6-yl)phenyl)piperidin-4-ol]",2200
11,"Cc1nc(-c2ccc(C3(O)CCN(C(C)C)CC3)cc2)cc2c1cc(-c1ccc(S(C)(=O)=O)cc1)n2C [Example 88, 4-(4-(1,4-dimethyl-2-(4-(methylsulfonyl)phenyl)-1H-pyrrolo[3,2-c]pyridin-6-yl)phenyl)-1-isopropylpiperidin-4-ol]",6500
12,"Cc1nc(-c2ccc(N3CCN4CCCC4C3)c(F)c2F)cc2c1cc(-c1ccc(S(C)(=O)=O)cc1)n2C (centres unmarked) [Example 99, 6-(2,3-difluoro-4-(hexahydropyrrolo[1,2-a]pyrazin-2(1H)-yl)phenyl)-1,4-dimethyl-2-(4-(methylsulfonyl)phenyl)-1H-pyrrolo[3,2-c]pyridine]",1500
13,"Cc1nc(-c2ccc(C3(O)CC4CCC(C3)N4C(C)C)c(F)c2)cc2c1cc(-c1ccc(S(C)(=O)=O)cc1)n2C [Example 100, (1R,3r,5S)-3-(4-(1,4-dimethyl-2-(4-(methylsulfonyl)phenyl)-1H-pyrrolo[3,2-c]pyridin-6-yl)-2-fluorophenyl)-8-isopropyl-8-azabicyclo[3.2.1]octan-3-ol]",7100
14,"CCN1C2CCC1CC(O)(c1ccc(-c3cc4c(cc(-c5ccc(S(C)(=O)=O)cc5)n4C)c(C)n3)cc1F)C2 [Example 101, (1R,3r,5S)-3-(4-(1,4-dimethyl-2-(4-(methylsulfonyl)phenyl)-1H-pyrrolo[3,2-c]pyridin-6-yl)-2-fluorophenyl)-8-ethyl-8-azabicyclo[3.2.1]octan-3-ol]",5700
15,"Cc1nc(-c2ccc(C3(O)CC4CCC(C3)N4C)c(F)c2)cc2c1cc(-c1ccc(S(C)(=O)=O)cc1)n2C [Example 102, (1R,3r,5S)-3-(4-(1,4-dimethyl-2-(4-(methylsulfonyl)phenyl)-1H-pyrrolo[3,2-c]pyridin-6-yl)-2-fluorophenyl)-8-methyl-8-azabicyclo[3.2.1]octan-3-ol]",5500
16,"Cc1nc(-c2ccc(C3(O)CCN(C(C)(C)C)CC3)c(F)c2)cc2c1cc(-c1ccc(S(C)(=O)=O)cc1)n2C [Example 104, 1-(tert-butyl)-4-(4-(1,4-dimethyl-2-(4-(methylsulfonyl)phenyl)-1H-pyrrolo[3,2-c]pyridin-6-yl)-2-fluorophenyl)piperidin-4-ol]",2200
17,"Cc1nc(-c2ccc([C@@]3(O)CCN(C(C)C)C(C)(C)C3)c(F)c2)cc2c1cc(-c1ccc(S(C)(=O)=O)cc1)n2C [Example 105, (R)-4-(4-(1,4-dimethyl-2-(4-(methylsulfonyl)phenyl)-1H-pyrrolo[3,2-c]pyridin-6-yl)-2-fluorophenyl)-1-isopropyl-2,2-dimethylpiperidin-4-ol]",1100
18,"Cc1nc(-c2ccc([C@]3(O)CCN(C(C)C)C(C)(C)C3)c(F)c2)cc2c1cc(-c1ccc(S(C)(=O)=O)cc1)n2C [Example 106, (S)-4-(4-(1,4-dimethyl-2-(4-(methylsulfonyl)phenyl)-1H-pyrrolo[3,2-c]pyridin-6-yl)-2-fluorophenyl)-1-isopropyl-2,2-dimethylpiperidin-4-ol]",1500
19,"Cc1nc(-c2ccc(C3(O)CCN(C(C)C)CC3)c(F)c2)cc2c1cc(-c1ccc(S(C)(=O)=O)cc1)n2C [Example 107, 4-(4-(1,4-dimethyl-2-(4-(methylsulfonyl)phenyl)-1H-pyrrolo[3,2-c]pyridin-6-yl)-2-fluorophenyl)-1-isopropylpiperidin-4-ol]",2100
20,"Cc1nc(-c2ccc(C3(O)CCN(C(C)(C)C)CC3)cc2F)cc2c1cc(-c1ccc(S(C)(=O)=O)cc1)n2C [Example 108, 1-(tert-butyl)-4-(4-(1,4-dimethyl-2-(4-(methylsulfonyl)phenyl)-1H-pyrrolo[3,2-c]pyridin-6-yl)-3-fluorophenyl)piperidin-4-ol]",1700
21,"Cc1nc(-c2ccc(C3(O)CCN(C(C)C)CC3)cc2F)cc2c1cc(-c1ccc(S(C)(=O)=O)cc1)n2C [Example 109, 4-(4-(1,4-dimethyl-2-(4-(methylsulfonyl)phenyl)-1H-pyrrolo[3,2-c]pyridin-6-yl)-3-fluorophenyl)-1-isopropylpiperidin-4-ol]",1300
22,"Cc1nc(C2CCN(C3CC4CCC(C3)N4CC(C)C)CC2)cc2c1cc(-c1ccc(S(C)(=O)=O)cc1)n2C (centres unmarked) [Example 114, 6-(1-(8-isobutyl-8-azabicyclo[3.2.1]octan-3-yl)piperidin-4-yl)-1,4-dimethyl-2-(4-(methylsulfonyl)phenyl)-1H-pyrrolo[3,2-c]pyridine]",14200
23,"Cc1nc(-c2ccc(CN3CCN(CCC(C)(C)O)CC3)cc2)cc2c1c(F)c(-c1ccc(S(C)(=O)=O)cc1)n2C [Example 115, 4-(4-(4-(3-fluoro-1,4-dimethyl-2-(4-(methylsulfonyl)phenyl)-1H-pyrrolo[3,2-c]pyridin-6-yl)benzyl)piperazin-1-yl)-2-methylbutan-2-ol]",16000
